In paper PMC8807947 (Journal of Inflammation Research, 2022):

What was measured:
[1] = tested on: carrageenan induced edema in rat paw; assay: Carrageenan induced edema model in rat paw; format: in vivo; settings: 50 mg/kg oral; for Anti-inflammatory (AI) %, range over time points: range over 1, 3 and 5 h
PGE2 = settings: read-out: PGE2 inhibition IC50; cited from earlier work
rats = assay: Gastric ulcerogenic liability in rats
COX-1 = target: T1, COX-1 (Ovis aries, UniProt P05979); assay: COX-1 inhibition, enzyme immunoassay; format: biochemical, ovine
T1 sequence (P05979 25-600): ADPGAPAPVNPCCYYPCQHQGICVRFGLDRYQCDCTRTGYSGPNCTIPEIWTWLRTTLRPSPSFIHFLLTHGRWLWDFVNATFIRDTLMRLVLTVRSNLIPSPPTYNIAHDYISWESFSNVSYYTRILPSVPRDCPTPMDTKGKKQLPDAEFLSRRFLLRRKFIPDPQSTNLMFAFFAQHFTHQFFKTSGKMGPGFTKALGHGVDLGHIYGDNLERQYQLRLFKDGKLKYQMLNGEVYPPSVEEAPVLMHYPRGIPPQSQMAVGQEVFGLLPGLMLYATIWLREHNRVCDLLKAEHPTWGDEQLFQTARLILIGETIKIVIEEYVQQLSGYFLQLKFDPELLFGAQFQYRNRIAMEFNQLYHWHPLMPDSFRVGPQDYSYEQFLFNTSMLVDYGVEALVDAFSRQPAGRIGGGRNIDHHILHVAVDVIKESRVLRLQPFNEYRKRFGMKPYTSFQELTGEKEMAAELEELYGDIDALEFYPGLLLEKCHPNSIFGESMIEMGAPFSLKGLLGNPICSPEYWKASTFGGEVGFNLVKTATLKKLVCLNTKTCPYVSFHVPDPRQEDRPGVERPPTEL

COX-2 = target: T2, COX-2 (Ovis aries, UniProt P79208); assay: COX-2 inhibition, enzyme immunoassay; format: biochemical, ovine; settings: for SI = IC50 (COX-1)/ IC50 (COX-2): selectivity index
T2 sequence (P79208 17-603): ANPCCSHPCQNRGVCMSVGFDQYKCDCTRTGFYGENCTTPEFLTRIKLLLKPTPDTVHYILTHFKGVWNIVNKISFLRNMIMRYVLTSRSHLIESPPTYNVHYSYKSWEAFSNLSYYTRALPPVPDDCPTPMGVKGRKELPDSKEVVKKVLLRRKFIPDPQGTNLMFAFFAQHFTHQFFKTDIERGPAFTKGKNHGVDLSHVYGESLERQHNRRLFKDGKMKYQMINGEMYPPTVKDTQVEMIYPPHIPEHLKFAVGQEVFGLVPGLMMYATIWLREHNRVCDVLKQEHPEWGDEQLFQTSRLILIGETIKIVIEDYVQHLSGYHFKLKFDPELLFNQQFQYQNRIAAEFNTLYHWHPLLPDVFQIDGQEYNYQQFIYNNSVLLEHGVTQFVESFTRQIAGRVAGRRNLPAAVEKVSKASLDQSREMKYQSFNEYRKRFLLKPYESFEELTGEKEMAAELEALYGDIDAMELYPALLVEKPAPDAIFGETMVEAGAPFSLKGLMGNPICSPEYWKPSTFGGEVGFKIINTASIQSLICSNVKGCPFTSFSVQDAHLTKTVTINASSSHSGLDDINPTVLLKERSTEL

interleukin IL-6 = settings: cited from earlier work
TNF-ὰ = settings: cited from earlier work

Cc1ccc(-c2cc(C(F)(F)F)nn2-c2ccc(S(N)(=O)=O)cc2)cc1 [Celecoxib, reference compound]
Anti-Inflammatory Activity % (AI) ([1]; 1 h): 43%
Paw edema (change of paw dimensions), mean ± SEM ([1]; 1 h): 0.83 ± 0.09
Anti-Inflammatory Activity % (AI) ([1]; 3 h): 43%
Paw edema (change of paw dimensions), mean ± SEM ([1]; 3 h): 0.80 ± 0.11
Anti-Inflammatory Activity % (AI) ([1]; 5 h): 54%
Paw edema (change of paw dimensions), mean ± SEM ([1]; 5 h): 0.65 ± 0.10
IC50 (PGE2): 100 nM
Relative Ulcerogenicity to Celecoxib (rats): 1
Ulcer Index (rats): 3.00 ± 0.09
Ulcer Number (rats): 3.25 ± 0.17

CCOC(=O)c1ccc(/N=N/c2ccc(O)c(C3c4c([nH]c(=S)[nH]c4=O)Nc4[nH]c(=S)[nH]c(=O)c43)c2)cc1 [IIIf, Ethyl (E)-4-((3-(4,6-Dioxo-2,8-Dithioxo-1,2,3,4,5,6,7,8,9,10-Decahydropyrido[2,3-D:6,5-D’]Dipyrimidin-5-Yl)-4-Hydroxyphenyl)Diazenyl)Benzoate]
IC50 (COX-1): 11200 ± 270 nM
IC50 (COX-2): 950 ± 10 nM
SI = IC50 (COX-1)/ IC50 (COX-2) (COX-2): 11.82
Anti-Inflammatory Activity % (AI) ([1]; 1 h): 52%
Anti-Inflammatory Activity % (AI) ([1]; 3 h): 59%
Paw edema (change of paw dimensions), mean ± SEM ([1]; 3 h): 0.58 ± 0.11
Anti-Inflammatory Activity % (AI) ([1]; 5 h): 66%
Paw edema (change of paw dimensions), mean ± SEM ([1]; 5 h): 0.48 ± 0.14
Anti-inflammatory (AI) %, range over time points [1]: 52–66%
Relative Ulcerogenicity to Celecoxib (rats): 1.25
Ulcer Index (rats): 3.75 ± 0.11
Ulcer Number (rats): 3.75 ± 0.15

CCOC(=O)c1ccc(/N=N/c2cc(C3c4c([nH]c(=S)[nH]c4=O)Nc4[nH]c(=S)[nH]c(=O)c43)c(OC)cc2OC)cc1 [IIIh, Ethyl (E)-4-((5-(4,6-Dioxo-2,8-Dithioxo-1,2,3,4,5,6,7,8,9,10-Decahydropyrido[2,3-D:6,5-D’]Dipyrimidin-5-Yl)-2,4-Dimethoxyphenyl)Diazenyl)Benzoate]
IC50 (COX-1): 7840 ± 160 nM
IC50 (COX-2): 2430 ± 70 nM
SI = IC50 (COX-1)/ IC50 (COX-2) (COX-2): 3.23
Anti-Inflammatory Activity % (AI) ([1]; 1 h): 67%
Paw edema (change of paw dimensions), mean ± SEM ([1]; 1 h): 0.49 ± 0.05
Anti-Inflammatory Activity % (AI) ([1]; 5 h): 57%
Anti-inflammatory (AI) %, range over time points [1]: 57–67%
Relative Ulcerogenicity to Celecoxib (rats): 1.75
Ulcer Index (rats): 5.25 ± 0.13
Ulcer Number (rats): 6.50 ± 0.11

O=c1[nH]c(=S)[nH]c2c1C(c1cc(/N=N/c3ccc(-c4nc5ccccc5s4)cc3)ccc1O)c1c([nH]c(=S)[nH]c1=O)N2 [IIIi, (E)-5-(5-((4-(Benzo[D]thiazol-2-Yl)Phenyl)Diazenyl)-2-Hydroxyphenyl)-2,8-Dithioxo-2,3,5,8,9,10-Hexahydropyrido[2,3-D:6,5-D’]Dipyrimidine-4,6(1H,7H)-Dione]
IC50 (COX-1): 3250 ± 70 nM
IC50 (COX-2): 690 ± 20 nM
SI = IC50 (COX-1)/ IC50 (COX-2) (COX-2): 4.71
Anti-Inflammatory Activity % (AI) ([1]; 1 h): 24%
Paw edema (change of paw dimensions), mean ± SEM ([1]; 1 h): 1.10 ± 0.14
Anti-Inflammatory Activity % (AI) ([1]; 3 h): 43%
Paw edema (change of paw dimensions), mean ± SEM ([1]; 3 h): 0.80 ± 0.15
Anti-Inflammatory Activity % (AI) ([1]; 5 h): 52%
Paw edema (change of paw dimensions), mean ± SEM ([1]; 5 h): 0.68 ± 0.13

COc1ccc2c(c1)c(CC(=O)O)c(C)n2C(=O)c1ccc(Cl)cc1 [Indomethacin, reference compound]
Relative Ulcerogenicity to Celecoxib (rats): 7.5
Ulcer Index (rats): 22.5 ± 0.21
Ulcer Number (rats): 14.25 ± 0.31

C[C@@H]1C[C@H]2[C@@H]3CCC4=CC(=O)C=C[C@]4(C)[C@@]3(F)[C@@H](O)C[C@]2(C)[C@@]1(O)C(=O)CO [dexamethasone]
inhibition of interleukin IL-6 (interleukin IL-6): 86%
inhibition of TNF-ὰ (TNF-ὰ): 72%
